Measurements published in ChEMBL document CHEMBL1201862, “PubChem BioAssay data set” (2004).
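Five concentrations, 48 hours, 96-well plates. GI50 is the concentration that inhibits growth by half.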 Activity calls are given as the source filed them. No stated cut-off is given here; in the data, active = GI50 up to about 1.1 µM and inactive = higher.

Columns and labels:
Assay in all cases: DTP human tumour cell line panel, 48 h
UACC-62 = test system: UACC-62
OVCAR-3 = test system: OVCAR-3
NCI/ADR-RES = test system: NCI/ADR-RES
UO-31 = test system: UO-31
EKVX = test system: EKVX
HOP-92 = test system: HOP-92
NCI-H23 = test system: NCI-H23
SF-295 = test system: SF-295
CAKI-1 = test system: CAKI-1
K562 = test system: K562
SNB-75 = test system: SNB-75
Malme-3M = test system: Malme-3M
HCT-116 = test system: HCT-116
SK-OV-3 = test system: SK-OV-3
MOLT-4 = test system: MOLT-4
OVCAR-8 = test system: OVCAR-8
T47D = test system: T47D
LOX IMVI = test system: LOX IMVI
MDA-MB-435 = test system: MDA-MB-435
COLO 205 = test system: COLO 205
HCC 2998 = test system: HCC 2998
A498 = test system: A498
SNB-19 = test system: SNB-19
HOP-62 = test system: HOP-62
SF-539 = test system: SF-539
MDA-N = test system: MDA-N
KM12 = test system: KM12
MDA-MB-231 = test system: MDA-MB-231
786-0 = test system: 786-0
OVCAR-4 = test system: OVCAR-4
CCRF-CEM = test system: CCRF-CEM
HCT-15 = test system: HCT-15
A549 = test system: A549
PC-3 = test system: PC-3
ACHN = test system: ACHN
BT-549 = test system: BT-549
U-251 = test system: U-251
SK-MEL-28 = test system: SK-MEL-28
RXF 393 = test system: RXF 393
IGROV-1 = test system: IGROV-1
TK-10 = test system: TK-10
SK-MEL-5 = test system: SK-MEL-5
OVCAR-5 = test system: OVCAR-5
NCI-H460 = test system: NCI-H460
SN12C = test system: SN12C
MCF7 = test system: MCF7
DU-145 = test system: DU-145
SF-268 = test system: SF-268
SK-MEL-2 = test system: SK-MEL-2
Hs-578T = test system: Hs-578T
UACC-257 = test system: UACC-257
HT-29 = test system: HT-29
NCI-H226 = test system: NCI-H226
SW-620 = test system: SW-620
M14 = test system: M14
HL-60 = test system: HL-60
RPMI-8226 = test system: RPMI-8226
NCI-H522 = test system: NCI-H522

Measured: GI50

CCOP(=O)(OCC)/C(=C/c1cccs1)CC(C)=O
> 100 µM: HCT-15
inactive: UACC-62 > 100 µM | OVCAR-3 > 100 µM | NCI/ADR-RES > 100 µM | UO-31 > 100 µM | EKVX > 100 µM | HOP-92 > 100 µM | NCI-H23 > 100 µM | SF-295 > 100 µM | CAKI-1 > 100 µM | K562 > 100 µM | SNB-75 > 100 µM | Malme-3M > 100 µM | HCT-116 > 100 µM | SK-OV-3 > 100 µM | MOLT-4 9.71 µM | OVCAR-8 > 100 µM | T47D 73.8 µM | LOX IMVI > 100 µM | MDA-MB-435 > 100 µM | COLO 205 > 100 µM | HCC 2998 > 100 µM | A498 75.3 µM | SNB-19 > 100 µM | HOP-62 > 100 µM | SF-539 > 100 µM | MDA-N > 100 µM | KM12 > 100 µM | MDA-MB-231 > 100 µM | 786-0 > 100 µM | OVCAR-4 > 100 µM | CCRF-CEM > 100 µM | A549 > 100 µM | PC-3 > 100 µM | ACHN > 100 µM | BT-549 > 100 µM | U-251 > 100 µM | SK-MEL-28 > 100 µM | RXF 393 > 100 µM | IGROV-1 > 100 µM | TK-10 > 100 µM | SK-MEL-5 > 100 µM | OVCAR-5 > 100 µM | NCI-H460 > 100 µM | SN12C > 100 µM | MCF7 > 100 µM | DU-145 > 100 µM | SF-268 > 100 µM | SK-MEL-2 > 100 µM | Hs-578T > 100 µM | UACC-257 > 100 µM | HT-29 > 100 µM | NCI-H226 > 100 µM | SW-620 > 100 µM | M14 > 100 µM

C[Si](C)(OCCS(=O)(=O)O)C1(Cc2cccc3ccccc23)S(=O)(=O)OCCOS1(=O)=O
inactive: UACC-62 17.9 µM | OVCAR-3 12.6 µM | NCI/ADR-RES 33.7 µM | UO-31 17.9 µM | EKVX 17.7 µM | HOP-92 11.2 µM | NCI-H23 27.8 µM | SF-295 20.2 µM | CAKI-1 17.5 µM | K562 26.4 µM | SNB-75 15.5 µM | HL-60 8.26 µM | HCT-116 18.5 µM | SK-OV-3 15.6 µM | MOLT-4 34.9 µM | OVCAR-8 19.5 µM | T47D 17.1 µM | LOX IMVI 16.2 µM | MDA-MB-435 18.6 µM | RPMI-8226 18.4 µM | COLO 205 12.3 µM | HCC 2998 16.5 µM | A498 15.9 µM | SNB-19 19.1 µM | HOP-62 19.6 µM | SF-539 18.6 µM | MDA-N 17.8 µM | KM12 14.4 µM | MDA-MB-231 18.1 µM | OVCAR-4 20.7 µM | CCRF-CEM 18.3 µM | A549 23 µM | PC-3 19 µM | ACHN 18.1 µM | BT-549 18.5 µM | U-251 20.3 µM | SK-MEL-28 17.1 µM | IGROV-1 16.9 µM | TK-10 20.9 µM | SK-MEL-5 17.3 µM | OVCAR-5 18.7 µM | NCI-H460 21.1 µM | SN12C 18.2 µM | MCF7 19.4 µM | DU-145 19.6 µM | SF-268 23.2 µM | SK-MEL-2 18.9 µM | Hs-578T 33.2 µM | UACC-257 28.1 µM | NCI-H226 19.5 µM | SW-620 16.3 µM | NCI-H522 13.7 µM | M14 17.7 µM
19.6 µM: HCT-15
